Values after ≈ are worked out from the molar mass of the structure shown.
What was measured:
Assay type in all cases: cell-based
[1] = test system: B. subtilis ATCC 6633; assay: MIC by agar dilution, B. subtilis ATCC 6633; details: Bacillus subtilis, ATCC6633, 17 h; B. subtilis ATCC 6633; agar dilution, Mueller-Hinton agar; read-out: Minimal Inhibitory Concentration (MIC)
Procedure: (§1) These MIC values were determined by agar dilution method: that is, two-fold dilutions of each of the test compounds were made and dispersed in a Mueller-Hinton agar medium; standard test strain which had the 10^6 CFU (Colony Forming Unit) per ml was inoculated on the medium with microplanter (Toyo, Japan), and incubated at 35°-37° C. for 17±1 hours. The structures of Ceftazidime (CAZ) and Cefotaxime (CTX) which are used as control compounds are as follows: [drawing 12]

[2] = test system: Ps. aeruginosa DY-2; assay: MIC by agar dilution, Ps. aeruginosa DY-2; details: Pseudomonas aeruginosa, DY2, 17 h; Ps. aeruginosa DY-2; agar dilution, Mueller-Hinton agar; read-out: Minimal Inhibitory Concentration (MIC)
Procedure: as §1

[3] = test system: Staph. aureus ATCC 6538P; assay: MIC by agar dilution, Staph. aureus ATCC 6538P; details: Staphylococcus aureus, ATCC6538P, 17 h; Staph. aureus ATCC 6538P; agar dilution, Mueller-Hinton agar; read-out: Minimal Inhibitory Concentration (MIC)
Procedure: as §1

[4] = test system: Staph. aureus Smith; assay: MIC by agar dilution, Staph. aureus Smith; details: Staphylococcus aureus, 17 h, Mueller-Hinton agar, read-out: Minimal Inhibitory Concentration (MIC)
Procedure: as §1

[5] = test system: E. coli No. 29; assay: MIC by agar dilution, E. coli No. 29; details: Escherichia coli, 17 h; E. coli No. 29; agar dilution, Mueller-Hinton agar; read-out: Minimal Inhibitory Concentration (MIC)
Procedure: as §1

[6] = test system: E. coli NIHJ JC-2; assay: MIC by agar dilution, E. coli NIHJ JC-2; details: Escherichia coli, NIHJJC2, 17 h; E. coli NIHJ JC-2; agar dilution, Mueller-Hinton agar; read-out: Minimal Inhibitory Concentration (MIC)
Procedure: as §1

[7] = test system: Ent. aerogenes IFO 12979; assay: MIC by agar dilution, Ent. aerogenes IFO 12979; details: Klebsiella aerogenes, IFO12979, 17 h, Mueller-Hinton agar, read-out: Minimal Inhibitory Concentration (MIC)
Procedure: as §1

[8] = test system: Staph. aureus C-5216; assay: MIC by agar dilution, Staph. aureus C-5216; details: Staphylococcus aureus, C5216, 17 h, Mueller-Hinton agar, read-out: Minimal Inhibitory Concentration (MIC)
Procedure: as §1

[9] = test system: S. epidermidis ATCC 12228; assay: MIC by agar dilution, S. epidermidis ATCC 12228; details: Staphylococcus epidermidis, ATCC12228, 17 h; S. epidermidis ATCC 12228; agar dilution, Mueller-Hinton agar; read-out: Minimal Inhibitory Concentration (MIC)
Procedure: as §1

[10] = test system: K. pneumoniae NCTC 9632; assay: MIC by agar dilution, K. pneumoniae NCTC 9632; details: Klebsiella pneumoniae, NCTC9632, 17 h; K. pneumoniae NCTC 9632; agar dilution, Mueller-Hinton agar; read-out: Minimal Inhibitory Concentration (MIC)
Procedure: as §1

[11] = test system: Ps. aeruginosa NCTC 10490; assay: MIC by agar dilution, Ps. aeruginosa NCTC 10490; details: Pseudomonas aeruginosa, NCTC10490, 17 h, Mueller-Hinton agar, read-out: Minimal Inhibitory Concentration (MIC)
Procedure: as §1

[12] = test system: Ent. cloacae IFO 13535; assay: MIC by agar dilution, Ent. cloacae IFO 13535; details: Enterobacter cloacae, IFO13535, 17 h; Ent. cloacae IFO 13535; agar dilution, Mueller-Hinton agar; read-out: Minimal Inhibitory Concentration (MIC)
Procedure: as §1

[13] = test system: Ser. marcescens IFO 12648; assay: MIC by agar dilution, Ser. marcescens IFO 12648; details: Serratia marcescens, IFO12648, 17 h; Ser. marcescens IFO 12648; agar dilution, Mueller-Hinton agar; read-out: Minimal Inhibitory Concentration (MIC)
Procedure: as §1

[14] = test system: E. coli DY-1; assay: MIC by agar dilution, E. coli DY-1; details: Escherichia coli, DY1, 17 h; E. coli DY-1; agar dilution, Mueller-Hinton agar; read-out: Minimal Inhibitory Concentration (MIC)
Procedure: as §1

[15] = test system: Prov. stuartii IFO 12930; assay: MIC by agar dilution, Prov. stuartii IFO 12930; details: Providencia stuartii, IFO12930, 17 h, Mueller-Hinton agar, read-out: Minimal Inhibitory Concentration (MIC)
Procedure: as §1

[16] = test system: Staph. aureus C-5113; assay: MIC by agar dilution, Staph. aureus C-5113; details: Staphylococcus aureus, C5113, 17 h, Mueller-Hinton agar, read-out: Minimal Inhibitory Concentration (MIC)
Procedure: as §1

[17] = test system: P. vulgaris NCTC 8313; assay: MIC by agar dilution, P. vulgaris NCTC 8313; details: Proteus vulgaris, NCTC8313, 17 h; P. vulgaris NCTC 8313; agar dilution, Mueller-Hinton agar; read-out: Minimal Inhibitory Concentration (MIC)
Procedure: as §1

[18] = test system: Ps. aeruginosa ATCC 10145; assay: MIC by agar dilution, Ps. aeruginosa ATCC 10145; details: Pseudomonas aeruginosa, ATCC10145, 17 h, Mueller-Hinton agar, read-out: Minimal Inhibitory Concentration (MIC)
Procedure: as §1

[19] = test system: Staph. aureus C-57; assay: MIC by agar dilution, Staph. aureus C-57; details: Staphylococcus aureus, C57, 17 h, Mueller-Hinton agar, read-out: Minimal Inhibitory Concentration (MIC)
Procedure: as §1

[20] = test system: M. morganii DY-1; assay: MIC by agar dilution, M. morganii DY-1; details: Morganella morganii, DY1, 17 h; M. morganii DY-1; agar dilution, Mueller-Hinton agar; read-out: Minimal Inhibitory Concentration (MIC)
Procedure: as §1

MIC [1] [µg/mL] | MIC [2] [µg/mL] | MIC [3] [µg/mL] | MIC [4] [µg/mL] | MIC [5] [µg/mL] | MIC [6] [µg/mL] | MIC [7] [µg/mL] | MIC [8] [µg/mL] | MIC [9] [µg/mL] | MIC [10] [µg/mL] | MIC [11] [µg/mL] | MIC [12] [µg/mL] | MIC [13] [µg/mL] | MIC [14] [µg/mL] | MIC [15] [µg/mL] | MIC [16] [µg/mL] | MIC [17] [µg/mL] | MIC [18] [µg/mL] | MIC [19] [µg/mL] | MIC [20] [µg/mL] | SMILES
0.1 (≈ 0.19 µM) | 0.78 (≈ 1.48 µM) | 0.1 (≈ 0.19 µM) | 0.39 (≈ 0.739 µM) | ≤ 0.006 | 0.025 (≈ 0.0474 µM) | 0.012 (≈ 0.0227 µM) | 0.39 (≈ 0.739 µM) | 0.025 (≈ 0.0474 µM) | ≤ 0.006 | 0.2 (≈ 0.379 µM) | 0.2 (≈ 0.379 µM) | ≤ 0.006 | ≤ 0.006 | 0.012 (≈ 0.0227 µM) | 0.39 (≈ 0.739 µM) | ≤ 0.006 | 0.2 (≈ 0.379 µM) | 6.25 (≈ 11.8 µM) | ≤ 0.006 | CCON=C(C(=O)NC1C(=O)N2C(C(=O)[O-])=C(C[n+]3ccn4cccc4c3)CSC12)c1csc(N)n1 (stereo not drawn) [Ex. 3, 7-β-[(Z)-2-(2-aminothiazol-4-yl)-2-ethoxyiminoacetamido]-3-(pyrrolo[1,2-a]pyrazinium-2-yl)methyl-3-cephem-4-carboxylate]
0.39 (≈ 0.702 µM) | 12.5 (≈ 22.5 µM) | 1.56 (≈ 2.81 µM) | 3.13 (≈ 5.63 µM) | 0.05 (≈ 0.09 µM) | 0.1 (≈ 0.18 µM) | 0.05 (≈ 0.09 µM) | 3.13 (≈ 5.63 µM) | 0.1 (≈ 0.18 µM) | 0.2 (≈ 0.36 µM) | 1.56 (≈ 2.81 µM) | 3.13 (≈ 5.63 µM) | 0.1 (≈ 0.18 µM) | 0.05 (≈ 0.09 µM) | 0.05 (≈ 0.09 µM) | 3.13 (≈ 5.63 µM) | 0.025 (≈ 0.045 µM) | 6.25 (≈ 11.2 µM) | 100 (≈ 180 µM) | 0.2 (≈ 0.36 µM) | CCON=C(C(=O)NC1C(=O)N2C(C(=O)[O-])=C(C[n+]3ccn4c(C=O)ccc4c3)CSC12)c1csc(N)n1 (stereo not drawn) [Ex. 26, 7-β-[(Z)-2-(2-aminothiazol-4-yl)2-ethoxyiminoacetamido]-3-(6-formylpyrrolo[1,2-a]pyrazinium-2-yl)methyl-3-cephem-4-carboxylate]
3.13 (≈ 5.34 µM) | 6.25 (≈ 10.7 µM) | 3.13 (≈ 5.34 µM) | 12.5 (≈ 21.3 µM) | 0.1 (≈ 0.171 µM) | 0.2 (≈ 0.342 µM) | 0.025 (≈ 0.0427 µM) | 12.5 (≈ 21.3 µM) | 1.56 (≈ 2.66 µM) | 0.2 (≈ 0.342 µM) | 0.39 (≈ 0.666 µM) | 3.13 (≈ 5.34 µM) | 0.1 (≈ 0.171 µM) | 0.05 (≈ 0.0854 µM) | 0.025 (≈ 0.0427 µM) | 25 (≈ 42.7 µM) | ≤ 0.006 | 0.78 (≈ 1.33 µM) | 100 (≈ 171 µM) | 0.05 (≈ 0.0854 µM) | CC(C)(ON=C(C(=O)NC1C(=O)N2C(C(=O)[O-])=C(C[n+]3ccn4cccc4c3)CSC12)c1csc(N)n1)C(=O)O (stereo not drawn) [Ex. 2, 7-β-[(Z)-2-(2-aminothiazol-4-yl)-2-(2-carboxyprop-2-oxyimino)acetamido]-3-(pyrrolo[1,2-a]pyrazinium-2-yl)methyl-3-cephem-4-carboxylate]
0.2 (≈ 0.346 µM) | 12.5 (≈ 21.6 µM) | 0.39 (≈ 0.675 µM) | 0.78 (≈ 1.35 µM) | 0.05 (≈ 0.0865 µM) | 0.39 (≈ 0.675 µM) | 0.1 (≈ 0.173 µM) | 1.56 (≈ 2.7 µM) | 0.05 (≈ 0.0865 µM) | 0.78 (≈ 1.35 µM) | 0.78 (≈ 1.35 µM) | 0.78 (≈ 1.35 µM) | 0.39 (≈ 0.675 µM) | 0.025 (≈ 0.0433 µM) | 0.025 (≈ 0.0433 µM) | 0.78 (≈ 1.35 µM) | 0.05 (≈ 0.0865 µM) | 3.13 (≈ 5.41 µM) | 6.25 (≈ 10.8 µM) | 0.1 (≈ 0.173 µM) | CO/N=C(\C(=O)N[C@@H]1C(=O)N2C(C(=O)[O-])=C(C[n+]3ccn4ccc(CO)c4c3)CS[C@H]12)c1nc(N)sc1Cl [Ex. 54, 7-β-[(Z)-2-(2-amino-5-chlorothiazol-4-yl)-2-methoxyiminoacetamido]-3-(8-hydroxymethylpyrrolo[1,2-a]-pyrazinium-2-yl)methyl-3-cephem-4-carboxylate]

Source: patent US5593984A, “Cephalosporin derivatives” (Yuhan Corporation, priority 1992, dated 1997)
